{"source": "patent US5188642A", "about": "“Glyphosate-resistant plants” (priority 1990, dated 1993)", "key": {"E. coli 11303 SM-1": {"tested_on": "E. coli 11303 SM-1", "assay": "Growth of E. coli culture in glyphosate-containing growth medium", "assay_type": "cell-based", "conditions": "mutant E. coli 11303 SM-1, glyphosate 10 mM or higher in growth medium", "procedure": "Cells of E. coli ATCC 11303 were transferred to medium A and incubated at 37° C.\n(§1) This mutant bacterium was designated E. coli 11303 SM-1. The aroA gene encoding EPSPS from this mutant bacterium was isolated as follows."}, "petunia plants": {"tested_on": "petunia plants", "assay": "Plant response to glyphosate spraying (petunia plants, track sprayer)", "assay_type": "in vivo", "conditions": "isopropylamine salt with ionic surfactant", "procedure": "Four individual representative transgenic seedlings were selected, grown and tested in the testing procedure described below, along with four individual non-transformed (wild-type) petunia seedlings.\nThe plants were grown in a growth medium in a growth chamber at 26° C. with 12 hours of light per day. The plants were fertilized weekly with a soluble fertilizer and watered as needed. The plants were sprayed at a uniform and reproducible delivery rate herbicide by use of an automated track sprayer.\nThe glyphosate solution used was measured as pounds of glyphosate acid equivalents per acre, mixed as the glyphosate isopropylamine salt, with an ionic surfactant.\nFour individual wild-type (non-transformed) petunia plants were selected for use as control plants. Four individual transformed plants containing the pMON546 vector were selected by kanamycin resistance as described in Horsch et al 1985.\nThe control plants and the transformed plants were sprayed with the isopropylamine salt of glyphosate at the application level listed in Table 2 below; the experimental results obtained are also summarized in Table 2."}, "EPSPS": {"target": "EPSPS (Escherichia coli, UniProt P0A6D3)", "assay_type": "biochemical, E. coli", "excerpt": "as §1\nIsolation of aroA gene encoding EPSPS from E. coli 11303 SM-1: The DNA from this bacterium was isolated (Marmur, J. (1961) J. Mol. Biol. 3:208-218). […] This fragment was cloned into the vector pKC7 (Rao, R. N. & Rogers, S. G. (1979), Gene, F. Jul. 7, 1982) and the resulting plasmid was used for trans-formation of E. coli. […] This clone was designated pMON9538. […] This clone was designated pMON9540. […] The E. coli mutant EPSPS gene was incorporated into plant transformation vector with and without a chloroplast transit peptide in the following manner."}, "transgenic canola lines": {"tested_on": "transgenic canola lines", "assay": "Glyphosate spray test, reproductive scores of transgenic canola (Example 20)", "assay_type": "in vivo, Brassica napus", "conditions": "0.28 Kg/ha, 28 days after spraying; lines with A. thaliana meristematic promoter (pMON992) versus enhanced CaMV35S promoter only (pMON987); FIG. 11", "procedure": "The transgenic, differentiated plants obtained containing the variant EPSP synthase gene as described above were analyzed for resistance to glyphosate. The transgenic plants containing the Arabidopsis EPSP synthase gene (as described) directed by the Arabidopsis thaliana promoter as also described above contained pMON992 while those plants containing the Arabidopsis EPSP synthase gene driven only by the enhanced CaMV35S promoter contained pMON987. These transgenic plants were planted and the seed from the R° plants harvested, threshed and dried before planting for a glyphosate spray test. The progeny were planted in 4-inch square pots of Metro 350 and three types of slow release fertilizers. A goal of twenty seedlings from each R° plant is desirable for testing. Germination frequency is usually high but overplanting ensures that twenty seedlings are present. The plants were thinned down by selecting the twenty most vigorous and erect seedlings seven to ten days after planting. A negative control (non-transformed, \"Westar\" variety) was planted at the same time to maintain quality and display the results. The plants were maintained and grown in a greenhouse environment. A sixteen-hour photoperiod and a temperature of 21° C. (day) and 15° C. (night) was maintained. Water soluble Peters Pete Lite fertilizer with an analysis of 20-19-18 was applied once per week or as needed. […]"}, "tomato leaf fragments": {"tested_on": "tomato leaf fragments", "assay": "Tomato leaf callus assay on glyphosate", "assay_type": "cell-based, tomato VF36", "conditions": "0.5 mM glyphosate, 10 days", "procedure": "Sterile seedlings of VF36 tomato are grown on water agar. Hypocotyls and cotyledons are excised and cultured for 2 days on MS medium containing B5 vitamins, 30 g/l sucrose and 1 mg/l benzyladenine and 0.1 mg/l indole acetic acid. The seedlings are then infected with the A. tumefaciens vector containing the chimeric EPSPS gene described in Example 2, by immersing for about 30 seconds in a culture of A. tumefaciens containing the chimeric EPSP synthase gene that had been diluted to 10^7 bacteria/ml. Explants are obtained by cutting sections from the seedlings. The explants are blotted dry and incubated as described previously in Example 2 except that the medium contains only 10% of standard concentration of MS salts. After 2 days of coculture, the explants are transferred to selective medium containing 100 ug/ml kanamycin. Transformed tomato plants grow from the explants. Leaves from these plants are tested for glyphosate resistance using a leaf callus assay described below. Tomato leaf fragments from plants containing vector alone (pMON200) or the pMON546 chimeric EPSPS gene are incubated on callus medium described above containing 0.5 mM glyphosate."}, "flax callus": {"tested_on": "flax callus", "assay": "Flax callus resistance to glyphosate", "assay_type": "cell-based", "conditions": "glyphosate between 5.0 and 20.0 mM", "procedure": "Flax seeds are surface-sterilized with 70% ethanol, 25% Chlorox and rinsed with sterile distilled water. The seeds are placed on solid MS medium and allowed to germinate in the light for 5-7 days. The hypocotyls are removed aseptically and inoculated with A. tumefaciens cells containing the above-described transformation vector and helper plasmid pTiB6S3-SE or pTiT37-SE and permitted to co-culture for 2 days on MS medium containing 1 mg/l benzylaminopurine, 0.02 mg/l naphthalene acetic acid and 4% sucrose. The hypocotyls are then placed on MS medium supplemented with 400 mg/l kanamycin and 500 mg/l carbenicillin.\nControl tissue is prepared using A. tumefaciens cells containing helper plasmid pTiB6S3-SE or pTiT37-SE and vector pMON200."}, "tobacco leaf disks": {"tested_on": "tobacco leaf disks", "assay": "Callus growth from tobacco leaf disks on glyphosate", "assay_type": "cell-based, N. tabacum", "conditions": "for callus tissue formation: 0.5 mM glyphosate", "excerpt": "Leaf disks were excised from tobacco plants (N. tabacum) and treated as described above with A. tumefaciens cells containing pMON546 (or pMON505, for control cells) and helper plasmid pGV3111-SE."}}, "data": [{"smiles": "O=C(O)CNCP(=O)(O)O", "note": "[glyphosate, N-phosphonomethylglycine]", "values": [{"measurement": "growth of culture", "setting": "E. coli 11303 SM-1", "value": "could grow rapidly"}, {"measurement": "Visual Appearance", "setting": "petunia plants; Chimeric EPSPS transformants (pMON546), 0.8 #/acre acid equivalent", "value": "healthy and viable"}, {"measurement": "Visual Appearance", "setting": "petunia plants; Control (wild-type) petunia plants, 0.4 #/acre acid equivalent", "value": "killed"}, {"measurement": "glyphosate sensitivity of EPSPS", "setting": "EPSPS; EPSPS of mutant cells (E. coli 11303 SM-1) compared with wild type E. coli", "value": "significantly different from that of wild type"}, {"measurement": "glyphosate tolerance of EPSPS", "setting": "EPSPS; EPSPS produced by hybrid K-12/11303 SM-1 aroA gene (pMON9540)", "value": "retained its glyphosate tolerance"}, {"measurement": "reproductive scores (scale 0-10)", "setting": "transgenic canola lines", "value": "higher reproductive scores"}, {"measurement": "callus growth from leaves", "setting": "tomato leaf fragments; control leaves (pMON200 vector alone)", "value": "completely inhibited and showed no signs of callus growth"}, {"measurement": "callus growth from leaves", "setting": "tomato leaf fragments; leaves from plants transformed with chimeric EPSPS gene (pMON546)", "value": "produced callus"}, {"measurement": "tissue response", "setting": "flax callus; control tissue (pMON200)", "value": "bleaches and dies"}, {"measurement": "callus resistance", "setting": "flax callus; selected callus transformed with EPSPS vector", "value": "demonstrates resistance to glyphosate"}, {"measurement": "callus tissue formation", "setting": "tobacco leaf disks; cells transformed with CaMV/EPSPS gene (pMON546)", "value": "created substantial amounts of callus tissue"}, {"measurement": "callus tissue formation", "setting": "tobacco leaf disks; control cells without the gene (pMON505)", "value": "did not create any detectable callus tissue"}, {"measurement": "glyphosate resistance of transformed tobacco cells", "setting": "tobacco leaf disks; pMON542, E. coli mutant EPSPS construct with CTP", "value": "resulted in glyphosate resistance"}, {"measurement": "glyphosate resistance of transformed tobacco cells", "setting": "tobacco leaf disks; pMON8078, E. coli mutant EPSPS construct without CTP", "value": "failed to confer glyphosate resistance"}]}]}
